{
  "source": "paper PMC3666759",
  "about": "“ATP Dependent Rotational Motion of Group II Chaperonin Observed by X-ray Single Molecule Tracking” (PLoS ONE, 2013)",
  "target": "T1, TKS1-Cpn (group II chaperonin from Thermococcus strain KS-1) (Thermococcus sp. JCM 11816, UniProt P61112, D263C/C366S)",
  "T1 construct": "gene thsA; full-length recombinant chaperonin, purified to homogeneity, double-ring homo-oligomer",
  "T1 sequence (P61112 whole entry D263C/C366S)": "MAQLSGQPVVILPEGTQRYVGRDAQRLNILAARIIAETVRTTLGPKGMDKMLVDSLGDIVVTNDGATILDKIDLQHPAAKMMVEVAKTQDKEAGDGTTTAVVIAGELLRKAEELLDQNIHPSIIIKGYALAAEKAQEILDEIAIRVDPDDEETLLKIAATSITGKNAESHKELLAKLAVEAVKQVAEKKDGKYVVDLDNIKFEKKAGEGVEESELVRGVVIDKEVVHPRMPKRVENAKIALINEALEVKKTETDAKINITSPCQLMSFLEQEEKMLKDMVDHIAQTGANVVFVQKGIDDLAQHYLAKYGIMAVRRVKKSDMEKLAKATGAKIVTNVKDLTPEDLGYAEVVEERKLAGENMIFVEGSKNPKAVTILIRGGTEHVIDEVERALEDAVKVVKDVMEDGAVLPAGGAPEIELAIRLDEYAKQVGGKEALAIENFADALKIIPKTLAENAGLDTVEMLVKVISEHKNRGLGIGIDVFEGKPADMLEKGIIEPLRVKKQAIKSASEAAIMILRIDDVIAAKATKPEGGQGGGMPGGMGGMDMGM",
  "experiment": "diffracted X-ray tracking (DXT), single molecule",
  "format": "binding",
  "settings": "2 mM ATP; MOPS pH 7.0, 100 mM KCl, 5 mM MgCl2, about 60 °C; immobilised on gold, gold nanocrystal label",
  "data": [
    {"smiles": "Nc1ncnc2c1ncn2[C@@H]1O[C@H](COP(=O)(O)OP(=O)(O)OP(=O)(O)O)[C@@H](O)[C@H]1O", "note": "[ATP]", "values": [
      {"measurement": "diffracted X-ray tracking (DXT), single molecule", "value": "Angular displacement in the χ direction was clearly activated by the addition of ATP."}
    ]}
  ]
}
